Inconclusive results and toxic doses are left out. No stated cut-off is given here; in the data, active means T/C of 150% or more; inactive means T/C below 125%.
Test system: L1210 leukemia ip in BDF1 mice, survival T/C
Experiment: NCI In Vivo Anticancer Drug Screen. Data for tumor model L1210 Leukemia (intraperitoneal) in B6D2F1 (BDF1) mice
Conditions: endpoint: mean survival time, higher = longer survival
In short: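 Tumor cells were implanted, animals were treated, and survival was followed. The result divides the treated measurement by the vehicle-control measurement.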

[1] = dose: 100.0 mg/kg/injection, schedule: Q04DX003 (ip), vehicle: saline
[2] = dose: 200.0 mg/kg/injection, schedule: Q04DX003 (ip), vehicle: saline
[3] = dose: 400.0 mg/kg/injection, schedule: Q04DX003 (ip), vehicle: saline
[4] = dose: 100.0 mg/kg/injection, schedule: Q01DX001 (ip), vehicle: Klucel (hydroxypropylcellulose) (HPC)
[5] = dose: 200.0 mg/kg/injection, schedule: Q01DX001 (ip), vehicle: Klucel (hydroxypropylcellulose) (HPC)
[6] = dose: 100.0 mg/kg/injection, schedule: Q01DX009 (ip), vehicle: Klucel (hydroxypropylcellulose) (HPC)
[7] = dose: 200.0 mg/kg/injection, schedule: Q01DX009 (ip), vehicle: Klucel (hydroxypropylcellulose) (HPC)
[8] = dose: 400.0 mg/kg/injection, schedule: Q01DX009 (ip), vehicle: Klucel (hydroxypropylcellulose) (HPC)
[9] = dose: 100.0 mg/kg/injection, schedule: Q04DX003 (ip), vehicle: Klucel (hydroxypropylcellulose) (HPC)
[10] = dose: 200.0 mg/kg/injection, schedule: Q04DX003 (ip), vehicle: Klucel (hydroxypropylcellulose) (HPC)
[11] = dose: 50.0 mg/kg/injection, schedule: Q01DX009 (ip), vehicle: saline with Tween-80
[12] = dose: 100.0 mg/kg/injection, schedule: Q01DX009 (ip), vehicle: saline with Tween-80
[13] = dose: 100.0 mg/kg/injection, schedule: Q04DX003 (ip), vehicle: saline with Tween-80
[14] = dose: 200.0 mg/kg/injection, schedule: Q04DX003 (ip), vehicle: saline with Tween-80
[15] = dose: 400.0 mg/kg/injection, schedule: Q04DX003 (ip), vehicle: saline with Tween-80
[16] = dose: 200.0 mg/kg/injection, schedule: Q01DX009 (ip), vehicle: saline with Tween-80
[17] = dose: 50.0 mg/kg/injection, schedule: Q01DX009 (ip), vehicle: Klucel (hydroxypropylcellulose) (HPC)
[18] = dose: 400.0 mg/kg/injection, schedule: Q01DX009 (ip), vehicle: saline with Tween-80

Measured: T/C

CC1([N+](=O)[O-])COCOC1
inactive: [1] 103 % of control | [2] 95 % of control | [3] 94 % of control

CCCCCCCCCCCCSc1ccc2ccccc2c1
inactive: [4] 87 % of control | [5] 92 % of control

O=C(Nc1ccc(/C=C/c2ccc(NC(=O)Nc3cccc(C4=NCCN4)c3)cc2)cc1)Nc1cccc(C2=NCCN2)c1
inactive: dose: 3.75 mg/kg/injection, schedule: Q01DX Z (ip), vehicle: carboxymethylcellulose (CMC) 93 % of control | dose: 7.5 mg/kg/injection, schedule: Q01DX Z (ip), vehicle: carboxymethylcellulose (CMC) 98 % of control | dose: 15.0 mg/kg/injection, schedule: Q01DX Z (ip), vehicle: carboxymethylcellulose (CMC) 96 % of control | dose: 50.0 mg/kg/injection, schedule: Q01DX Z (ip), vehicle: carboxymethylcellulose (CMC) 103 % of control | dose: 100.0 mg/kg/injection, schedule: Q01DX Z (ip), vehicle: carboxymethylcellulose (CMC) 102 % of control | dose: 200.0 mg/kg/injection, schedule: Q01DX Z (ip), vehicle: carboxymethylcellulose (CMC) 97 % of control

CCN(CCOC(=O)Nc1cccc(C(C)=O)c1)c1ccccc1
inactive: [6] 108 % of control | [7] 104 % of control | [8] 106 % of control

CC1(C)N=C(N)N=C(N)N1c1cccc(CCCCc2cccc(S(=O)(=O)F)c2)c1
inactive: dose: 6.25 mg/kg/injection, schedule: Q01DX009 (ip), vehicle: saline sonified 100 % of control | dose: 6.25 mg/kg/injection, schedule: Q04DX003 (ip), vehicle: saline sonified 93 % of control | dose: 12.5 mg/kg/injection, schedule: Q01DX009 (ip), vehicle: saline sonified 88 % of control | dose: 12.5 mg/kg/injection, schedule: Q04DX003 (ip), vehicle: saline sonified 98 % of control | dose: 25.0 mg/kg/injection, schedule: Q01DX009 (ip), vehicle: saline sonified 92 % of control | dose: 25.0 mg/kg/injection, schedule: Q04DX003 (ip), vehicle: saline sonified 93 % of control

CCOC(=O)c1cnc(SC)nc1Nc1cccc(Cl)c1Cl
inactive: [9] 100 % of control | [10] 95 % of control | dose: 400.0 mg/kg/injection, schedule: Q04DX003 (ip), vehicle: Klucel (hydroxypropylcellulose) (HPC) 94 % of control

O=C1C2CCC(C2)C1C(O)(C(F)(F)F)C(F)(F)F (stereo not given)
inactive: dose: 25.0 mg/kg/injection, schedule: Q01DX009 (ip), vehicle: saline with Tween-80 101 % of control | [11] 100 % of control | dose: 50.0 mg/kg/injection, schedule: Q04DX003 (ip), vehicle: saline with Tween-80 101 % of control | [12] 91 % of control | [13] 98 % of control | [14] 91 % of control

COC(=O)c1cc(N2CC2)nc(Cl)n1
inactive: dose: 25.0 mg/kg/injection, schedule: Q01DX Z (ip), vehicle: methylcellulose (MC) 101 % of control | dose: 50.0 mg/kg/injection, schedule: Q01DX Z (ip), vehicle: methylcellulose (MC) 93 % of control

CC1(C(N)=O)CCCC2(C)c3ccccc3CCC12 (stereo not given)
inactive: [13] 92 % of control | [14] 95 % of control | [15] 94 % of control

CN(C)N=Nc1c(Br)cc(Br)cc1Br
inactive: [11] 87 % of control | [12] 102 % of control | [16] 105 % of control

O=C1c2ccccc2C(=O)N1CCCO
inactive: dose: 50.0 mg/kg/injection, schedule: Q01DX001 (ip), vehicle: Klucel (hydroxypropylcellulose) (HPC) 96 % of control | [4] 100 % of control | [5] 102 % of control

CCN(CC)Cc1ncccc1O
inactive: [17] 106 % of control | [6] 106 % of control | [9] 105 % of control | [7] 93 % of control | [10] 104 % of control

CCCCOC(=O)C(C)OC(=O)Nc1ccccc1 (stereo not given)
inactive: dose: 100.0 mg/kg/injection, schedule: Q01DX009 (sc), vehicle: olive oil, sesame oil, peanut oil 95 % of control | dose: 100.0 mg/kg/injection, schedule: Q04DX003 (sc), vehicle: olive oil, sesame oil, peanut oil 100 % of control | dose: 200.0 mg/kg/injection, schedule: Q01DX009 (sc), vehicle: olive oil, sesame oil, peanut oil 92 % of control | dose: 200.0 mg/kg/injection, schedule: Q04DX003 (sc), vehicle: olive oil, sesame oil, peanut oil 105 % of control | dose: 400.0 mg/kg/injection, schedule: Q01DX009 (sc), vehicle: olive oil, sesame oil, peanut oil 92 % of control | dose: 400.0 mg/kg/injection, schedule: Q04DX003 (sc), vehicle: olive oil, sesame oil, peanut oil 115 % of control

O=C(c1ccccc1)C(Cl)Cl
inactive: [1] 106 % of control | [2] 96 % of control | [3] 98 % of control

COC(=O)C1=CC=CC1
inactive: dose: 100.0 mg/kg/injection, schedule: Q01DX005 (ip), vehicle: Klucel (hydroxypropylcellulose) (HPC) 103 % of control | [6] 104 % of control | dose: 200.0 mg/kg/injection, schedule: Q01DX005 (ip), vehicle: Klucel (hydroxypropylcellulose) (HPC) 98 % of control | [7] 104 % of control | dose: 400.0 mg/kg/injection, schedule: Q01DX005 (ip), vehicle: Klucel (hydroxypropylcellulose) (HPC) 95 % of control | [8] 93 % of control

CCCCCOc1ccc(C2=C(c3ccccc3)C(=O)C(c3ccccc3)=C2c2ccccc2)cc1
inactive: dose: 100.0 mg/kg/injection, schedule: Q01DX001 (ip), vehicle: carboxymethylcellulose (CMC) 100 % of control | dose: 200.0 mg/kg/injection, schedule: Q01DX001 (ip), vehicle: carboxymethylcellulose (CMC) 100 % of control | dose: 400.0 mg/kg/injection, schedule: Q01DX001 (ip), vehicle: carboxymethylcellulose (CMC) 94 % of control

O=C1c2ccccc2-c2ccc(Br)c3cccc1c23
inactive: [17] 93 % of control | dose: 50.0 mg/kg/injection, schedule: Q04DX003 (ip), vehicle: Klucel (hydroxypropylcellulose) (HPC) 100 % of control | [6] 91 % of control | [9] 95 % of control | [7] 91 % of control | [10] 100 % of control

Cc1c2ccccc2c(C)c2c1cc(CO)c1ccccc12
inactive: dose: 100.0 mg/kg/injection, schedule: Q04DX002 (ip), vehicle: Klucel (hydroxypropylcellulose) (HPC) 97 % of control | dose: 200.0 mg/kg/injection, schedule: Q04DX002 (ip), vehicle: Klucel (hydroxypropylcellulose) (HPC) 104 % of control | dose: 400.0 mg/kg/injection, schedule: Q04DX002 (ip), vehicle: Klucel (hydroxypropylcellulose) (HPC) 89 % of control

Nc1ncnc2c1ncn2C1OC(COP(=O)(O)OP(=O)(O)OP(=O)(O)O)C(O)C1O (stereo not given)
inactive: dose: 80.0 mg/kg/injection, schedule: Q01DX Z (ip), vehicle: saline 87 % of control | dose: 120.0 mg/kg/injection, schedule: Q01DX Z (ip), vehicle: saline 87 % of control | dose: 180.0 mg/kg/injection, schedule: Q01DX Z (ip), vehicle: saline 95 % of control | dose: 270.0 mg/kg/injection, schedule: Q01DX Z (ip), vehicle: saline 98 % of control

CCOc1c(Br)cc(Br)cc1C=O
inactive: [12] 97 % of control | [13] 103 % of control | [16] 94 % of control | [14] 109 % of control | [18] 110 % of control | [15] 103 % of control

CCC(=O)Nc1cccc(OC(=O)NCCCl)c1
inactive: [12] 96 % of control | [16] 87 % of control | [18] 86 % of control

Source: PubChem BioAssay AID248 (DTP/NCI, 2004)
